# Experimental data from ChEMBL document CHEMBL3044876, “The sodium channel gene in Tetranychus cinnabarinus (Boisduval): identification and expression analysis of a mutation associated with pyrethroid resistance” (2011).
# Key:
# Assay type in all cases: functional
# Tetranychus cinnabarinus [1] = test: Synergism ratio, LC50 for insecticidal activity against compound resistant Tetranychus cinnabarinus (carmine spider mite) to LC50 for insecticidal activity against compound resistant Tetranychus cinnabarinus in presence of piperonyl butoxide (PBO), diethyl maleate (DEM) and triphenyl phosphate (TPP)
# Tetranychus cinnabarinus [2] = test: Insecticidal activity against compound susceptible Tetranychus cinnabarinus (carmine spider mite)
# Tetranychus cinnabarinus [3] = test: Insecticidal activity against compound resistant Tetranychus cinnabarinus (carmine spider mite) in presence of piperonyl butoxide (PBO), diethyl maleate (DEM) and triphenyl phosphate (TPP)
# Tetranychus cinnabarinus [4] = test: Resistance ratio, LC50 for insecticidal activity against compound resistant Tetranychus cinnabarinus (carmine spider mite) in presence of piperonyl butoxide (PBO), diethyl maleate (DEM) and triphenyl phosphate (TPP) to LC50 for insecticidal activity against compound susceptible Tetranychus cinnabarinus in presence of piperonyl butoxide (PBO), diethyl maleate (DEM) and triphenyl phosphate (TPP)
smiles,measurement,setting,value
CC1(C)C(C(=O)OC(C#N)c2cccc(Oc3ccccc3)c2)C1(C)C (centres undefined) [FENPROPATHRIN],Ratio,Tetranychus cinnabarinus [1],1
same,LC50,Tetranychus cinnabarinus [2],0.714 mg/mL
same,LC50,Tetranychus cinnabarinus [3],70.3 mg/mL
same,Ratio,Tetranychus cinnabarinus [4],98.5
